Data set [1] concerns KU812. Kind of data set: CCK8 antiproliferative assay, KU812. It is filed as cell-based. The conditions noted are these: Homo sapiens, CCK8, 48 h, mean ± SD, n = 3. As to the method:
(§1) For all biological assays, all of the synthesized compounds were dissolved in DMSO. The cytotoxicity of all of the target compounds against the HCT116, K562, KU812, and HT-29 cells was determined by an CCK8 assay in vitro using adriamycin and echinatin as the controls. About 3000 cells per well were seeded in a 96-well plate and incubated for 24 h. Then, the cells were stimulated with different concentrations of test compounds for 48 h. The CCK8 solution (100 µL 0.5 mg/mL^−1) was added to each well, and the cells were incubated for another 4 h. Then, the absorbance of the samples was measured at 450 nm. The IC50 values were calculated according to the Logit method after obtaining the inhibitory rate. All experiments were repeated three times.
(Formazan colour is commonly taken as a measure of viable cells.)

In data set [2] the test system is HCT116. Kind of data set: CCK8 antiproliferative assay, HCT116. The conditions noted are these: Homo sapiens, HCT-116; CCK8, 48 h, mean ± SD, n = 3. Type of data set: cell-based. Here is the method:
as §1

Data set [3] relates to K562. The experiment in a line: CCK8 antiproliferative assay, K562. Type of data set: cell-based. The note with it: Homo sapiens, CCK8, 48 h, mean ± SD, n = 3. Here is the method:
as §1

Data set [4] has as its system HT-29. The experiment in a line: CCK8 antiproliferative assay, HT-29. It is filed as cell-based. The conditions noted are these: Homo sapiens, CCK8, 48 h, mean ± SD, n = 3. As to the method:
as §1

In data set [5] the target is c-KIT (Homo sapiens, UniProt P10721). The experiment in a line: Biochemical c-KIT activity assay (ADP-Glo). The note with it: 20 μM ATP, read-out: IC50 for c-KIT inhibition. Here is the method: The enzymatic activities of c-KIT were determined by in vitro kinase assays using the ADP-Glo reagent (Promega, Madison, WI, USA) according to the manufacturer’s instructions. Briefly, 250 ng of c-KIT protein was incubated with compounds in 10 μL of reaction buffer (40 mM Tris−HCl, pH 7.4, 2 mM MnCl2, 2 mM DTT, 20 mM MgCl2, 0.1 mg/mL bovine serum albumin, 1 mM Na3VO4) containing 20 μΜ ATP and 40 μM poly (Glu4-Tyr1) as substrates at 30 °C for 150 min. The ADP-Glo reagent was then added, and the mixture was incubated at 25 °C for 40 min. The kinase detection reagent was added for another 30 min at 25 °C. The converted ADP was determined by luminescence measurement using a Wallac Vector 1420 multilabel counter (PerkinElmer).
Background: ADP-Glo first removes unused ATP, then detects ADP through luciferase.

SMILES strings stand for the structures.

Usually IC50 stands for the concentration that inhibits the measured activity by half. Usually melting point stands for the temperature, or range, at which the solid turns liquid.

c-KIT, sequence (P10721 26-976): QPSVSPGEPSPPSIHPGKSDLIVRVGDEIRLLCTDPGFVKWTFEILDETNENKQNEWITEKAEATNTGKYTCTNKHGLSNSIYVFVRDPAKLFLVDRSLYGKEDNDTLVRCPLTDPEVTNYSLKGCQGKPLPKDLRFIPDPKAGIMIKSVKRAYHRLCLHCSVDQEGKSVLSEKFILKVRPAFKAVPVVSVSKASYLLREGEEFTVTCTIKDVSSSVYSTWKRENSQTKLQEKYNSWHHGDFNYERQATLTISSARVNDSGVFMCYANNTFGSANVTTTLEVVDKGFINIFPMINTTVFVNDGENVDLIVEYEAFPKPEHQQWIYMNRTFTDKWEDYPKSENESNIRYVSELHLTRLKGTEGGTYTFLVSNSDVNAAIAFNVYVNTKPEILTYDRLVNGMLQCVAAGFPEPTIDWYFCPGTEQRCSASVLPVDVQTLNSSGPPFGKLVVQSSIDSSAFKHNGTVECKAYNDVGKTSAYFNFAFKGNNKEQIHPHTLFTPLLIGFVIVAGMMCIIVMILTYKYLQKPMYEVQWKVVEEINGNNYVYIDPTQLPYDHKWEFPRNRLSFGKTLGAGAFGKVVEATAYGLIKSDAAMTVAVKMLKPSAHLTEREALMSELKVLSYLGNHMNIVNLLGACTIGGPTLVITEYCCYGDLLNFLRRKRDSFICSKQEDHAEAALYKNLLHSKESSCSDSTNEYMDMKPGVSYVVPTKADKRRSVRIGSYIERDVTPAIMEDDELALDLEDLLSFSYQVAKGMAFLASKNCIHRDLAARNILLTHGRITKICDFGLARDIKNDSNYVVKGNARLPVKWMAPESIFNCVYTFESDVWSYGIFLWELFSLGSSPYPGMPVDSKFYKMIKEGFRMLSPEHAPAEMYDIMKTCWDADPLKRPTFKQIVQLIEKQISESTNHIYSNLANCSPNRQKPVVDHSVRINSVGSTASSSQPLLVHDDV

Turning to `COc1cc(O)ccc1/C=C/C(=O)c1ccc(OCc2nnc(Nc3ccccc3F)o2)cc1` [Compound T12, (E)-1-{4-{{5-[(2-Fluorophenyl)amino]-1,3,4-oxadiazol-2-yl}methoxy}phenyl}-3-(4-hydroxy-2-methoxyphen-yl)propenone], the melting point lay within 186.2 to 187.4 °C. For the same compound, the IC50 in data set [1] is over 30 µM. In data set [2], this compound came in with an IC50 of 6.14 ± 1.45 µM. The compound also yielded an IC50 in data set [3] of over 30 µM. In data set [4], the IC50 came to 12.8 ± 0.98 µM.
In turn, `COc1cc(O)ccc1/C=C/C(=O)c1ccc(OCc2nnc(Nc3ccc(F)cc3F)o2)cc1` [Compound T16, (E)-1-{4-{{5-[(2,4-Difluorophenyl)amino]-1,3,4-oxadiazol-2-yl}methoxy}phenyl}-3-(4-hydroxy-2-methoxy-phenyl)propenone] registered a melting point of 223.4 to 223.9 °C. In data set [1], this compound showed an IC50 of over 30 µM. In data set [2], this compound showed a concentration for half-maximal inhibition (IC50) of over 30 µM. This compound registered a half-maximal inhibitory concentration (IC50) in data set [3] of over 30 µM. Further, the concentration for half-maximal inhibition (IC50) in data set [4] was over 30 µM.
Compound `COc1cc(O)ccc1/C=C/C(=O)c1ccc(OCc2nnc(Nc3ccccc3C)o2)cc1` [Compound T9] returned a melting point of 206.5 to 209.2 °C. Further, the IC50 in data set [1] was over 30 µM. In addition, the concentration for half-maximal inhibition (IC50) in data set [2] was 10 ± 0.93 µM. For the same compound, in data set [3], the IC50 is over 30 µM. The same compound registered a half-maximal inhibitory concentration (IC50) in data set [4] of over 30 µM.
Turning to `COc1cccc2c1C(=O)c1c(O)c3c(c(O)c1C2=O)C[C@@](O)(C(=O)CO)C[C@@H]3O[C@H]1C[C@H](N)[C@H](O)[C@H](C)O1` [Adriamycin, reference compound], the IC50 came to 4.14 ± 0.53 µM in data set [1], 1.5 ± 0.19 µM in data set [2], 4.22 ± 0.44 µM in data set [3] and 2.7 ± 0.71 µM in data set [4].
Compound `CCOc1ccccc1Nc1nnc(COc2ccc(C(=O)/C=C/c3ccc(O)cc3OC)cc2)o1` [Compound T11, (E)-1-{4-{{5-[(2-Ethoxyphenyl)amino]-1,3,4-oxadiazol-2-yl}methoxy}phenyl}-3-(4-hydroxy-2-methoxyphe-nyl)propenone] had a melting point of 175.4 to 188.3 °C. Further, in data set [1], the IC50 was over 30 µM. In data set [2], this compound gave a half-maximal inhibitory concentration (IC50) of over 30 µM. Also, the half-inhibitory concentration (IC50) in data set [3] was over 30 µM. Also, the IC50 in data set [4] was over 30 µM.
In turn, `COc1ccc(Nc2nnc(COc3ccc(C(=O)/C=C/c4ccc(O)cc4OC)cc3)o2)cc1` [Compound T2, (E)-3-(4-Hydroxy-2-methoxyphenyl)-1-{4-{{5-[(4-methoxyphenyl)amino]-1,3,4-oxadiazol-2-yl}methoxy}phenyl}p-ropenone] registered a melting point of 212.6 to 213.6 °C. Moreover, in data set [1], the IC50 turned out to be 13.3 ± 0.39 µM. Besides, 3.97 ± 0.53 µM corresponded to half-maximal inhibition in data set [2] (IC50). The concentration for half-maximal inhibition (IC50) in data set [3] is over 30 µM. This compound came in with an IC50 in data set [4] of 8.78 ± 0.12 µM.
Taken in the same sequence, the figures for `COc1cc(O)ccc1/C=C/C(=O)c1ccc(OCc2nnc(Nc3c(F)cccc3F)o2)cc1` [Compound T17, (E)-1-{4-{{5-[(2,6-Difluorophenyl)amino]-1,3,4-oxadiazol-2-yl}methoxy}phenyl}-3-(4-hydroxy-2-methoxy-phenyl)propenone] were 193 to 194.3 °C, over 30 µM, over 30 µM, over 30 µM and over 30 µM.
For the compound `CCOc1ccc(Nc2nnc(COc3ccc(C(=O)/C=C/c4ccc(O)cc4OC)cc3)o2)cc1` [Compound T3], the melting point lay within 200.1 to 200.4 °C. Also, the half-maximal inhibitory concentration (IC50) in data set [1] was 17.2 ± 0.67 µM. Moreover, the IC50 in data set [5] was found to be 0.237 µM. Moreover, the IC50 in data set [2] was 2.47 ± 0.56 µM. This compound gave an IC50 in data set [3] of 15.5 ± 1.09 µM. This compound returned a concentration for half-maximal inhibition (IC50) in data set [4] of 5.16 ± 0.11 µM.
Consider `COc1cc(O)ccc1/C=C/C(=O)c1ccc(OCc2nnc(Nc3ccc(C)cc3)o2)cc1` [Compound T1, (E)-3-(4-Hydroxy-2-methoxyphenyl)-1-{4-{[5-(p-tolylamino)-1,3,4-oxadiazol-2-yl]methoxy}phenyl}propen-one], for which the melting point lay in the range of 186.1 to 189.4 °C. The same compound returned an IC50 in data set [1] of 9.55 ± 0.17 µM. This compound returned a 50% inhibitory concentration (IC50) in data set [2] of 4.85 ± 0.32 µM. In addition, the concentration for half-maximal inhibition (IC50) in data set [3] came to 22.05 ± 0.12 µM. This compound showed an IC50 in data set [4] of 7.1 ± 0.45 µM.
As for `COc1cc(O)ccc1/C=C/C(=O)c1ccc(O)cc1` [Echinatin], the concentration for half-maximal inhibition (IC50) in data set [1] is 13.8 ± 0.33 µM; in data set [2], 4.54 ± 0.76 µM; in data set [3] it was over 30 µM; in data set [4], 10.4 ± 0.87 µM.
On to `COc1cc(O)ccc1/C=C/C(=O)c1ccc(OCc2nnc(Nc3cccc(Cl)c3)o2)cc1` [Compound T14, (E)-1-{4-{{5-[(3-Chlorophenyl)amino]-1,3,4-oxadiazol-2-yl}methoxy}phenyl}-3-(4-hydroxy-2-methoxyphen-yl)propenone], for which the melting point lay in the range of 225 to 225.9 °C. Moreover, the half-maximal inhibitory concentration (IC50) in data set [1] is over 30 µM. This compound also registered an IC50 in data set [2] of 9.83 ± 1.98 µM. The IC50 in data set [3] was over 30 µM. This compound gave an IC50 in data set [4] of 13.2 ± 0.53 µM.
As to `COc1cc(O)ccc1/C=C/C(=O)c1ccc(OCc2nnc(Nc3cccc(C)c3)o2)cc1` [Compound T10, (E)-3-(4-Hydroxy-2-methoxyphenyl)-1-{4-{[5-(m-tolylamino)-1,3,4-oxadiazol-2-yl]methoxy}phenyl}propen-one], the melting point was in the range of 187.6 to 190.8 °C. This compound also showed an IC50 in data set [1] of over 30 µM. The compound also had a 50% inhibitory concentration (IC50) in data set [2] of 7.62 ± 1.23 µM. The compound also had an IC50 in data set [3] of over 30 µM. The compound further showed a half-inhibitory concentration (IC50) in data set [4] of over 30 µM.
`COc1cc(O)ccc1/C=C/C(=O)c1ccc(OCc2nnc(Nc3c(Cl)cccc3Cl)o2)cc1` [Compound T18, (E)-1-{4-{{5-[(2,6-Dichlorophenyl)amino]-1,3,4-oxadiazol-2-yl}methoxy}phenyl}-3-(4-hydroxy-2-methoxy-phenyl)propenone]: the melting point lay within 172.3 to 174.6 °C. Further, in data set [1], the half-inhibitory concentration (IC50) was over 30 µM. Moreover, the 50% inhibitory concentration (IC50) in data set [2] is over 30 µM. Also, the IC50 in data set [3] was over 30 µM. The compound further displayed an IC50 in data set [4] of over 30 µM.
In turn, `COc1cc(O)ccc1/C=C/C(=O)c1ccc(OCc2nnc(Nc3ccc(C(C)(C)C)cc3)o2)cc1` [Compound T8] came in with a melting point of 197.1 to 198.5 °C. Also, in data set [1], the IC50 was determined as 12 ± 1.28 µM. Moreover, the IC50 in data set [5] was determined as 0.613 µM. Besides, the IC50 in data set [2] amounted to 6.51 ± 0.19 µM. The IC50 in data set [3] came to 19.48 ± 0.12 µM. In data set [4], this compound showed an IC50 of 4.94 ± 0.25 µM.
`COc1cc(O)ccc1/C=C/C(=O)c1ccc(OCc2nnc(Nc3ccccc3Cl)o2)cc1` [Compound T13, (E)-1-{4-{{5-[(2-Chlorophenyl)amino]-1,3,4-oxadiazol-2-yl}methoxy}phenyl}-3-(4-hydroxy-2-methoxyphen-yl)propenone] gave a melting point of 191.3 to 191.8 °C. In addition, in data set [1], the IC50 is over 30 µM. Half-maximal inhibition in data set [2] (IC50) required 10.2 ± 0.87 µM. The compound also gave a half-inhibitory concentration (IC50) in data set [3] of over 30 µM. Inhibition in data set [4] was half-maximal at 13.9 ± 0.67 µM (IC50).
Consider `COc1cc(O)ccc1/C=C/C(=O)c1ccc(OCc2nnc(Nc3ccc(Cl)cc3)o2)cc1` [Compound T7, (E)-1-{4-{{5-[(4-Chlorophenyl)amino]-1,3,4-oxadiazol-2-yl}methoxy}phenyl}-3-(4-hydroxy-2-methoxyphen-yl)propenone], for which the melting point lay in the range of 211.4 to 212.1 °C. The compound further yielded an IC50 in data set [1] of 17.5 ± 1.77 µM. This compound also showed a concentration for half-maximal inhibition (IC50) in data set [2] of 2.08 ± 0.54 µM. In addition, the concentration for half-maximal inhibition (IC50) in data set [3] is over 30 µM. Further, the IC50 in data set [4] was over 30 µM.
`COc1cc(O)ccc1/C=C/C(=O)c1ccc(OCc2nnc(Nc3ccc(C)cc3C)o2)cc1` [Compound T15, (E)-1-{4-{{5-[(2,4-Dimethylphenyl)amino]-1,3,4-oxadiazol-2-yl}methoxy}phenyl}-3-(4-hydroxy-2-methoxy-phenyl)propenone] came in with a melting point of 192.9 to 194.1 °C. In data set [1], this compound registered an IC50 of over 30 µM. This compound also came in with a half-inhibitory concentration (IC50) in data set [2] of over 30 µM. This compound registered a 50% inhibitory concentration (IC50) in data set [3] of over 30 µM. The IC50 in data set [4] is over 30 µM.
For `FC(F)(F)c1ccc(CNc2ccc(Cc3c[nH]c4ncccc34)cn2)cc1` [PLX647, reference compound], the half-inhibitory concentration (IC50) in data set [5] was 0.068 µM.
`COc1cc(O)ccc1/C=C/C(=O)c1ccc(OCc2nnc(Nc3ccc(OC(F)(F)F)cc3)o2)cc1` [Compound T5]: the melting point was in the range of 227.6 to 228.4 °C. The same compound returned a half-inhibitory concentration (IC50) in data set [1] of 12.45 ± 0.02 µM. Besides, in data set [2], the 50% inhibitory concentration (IC50) was found to be 3.94 ± 0.33 µM. In data set [3], the IC50 is over 30 µM. For the same compound, in data set [4], the IC50 was 3.64 ± 0.21 µM.
With `COc1cc(O)ccc1/C=C/C(=O)c1ccc(OCc2nnc(Nc3ccc(F)cc3)o2)cc1` [Compound T6, (E)-1-{4-{{5-[(4-Fluorophenyl)amino]-1,3,4-oxadiazol-2-yl}methoxy}phenyl}-3-(4-hydroxy-2-methoxyphen-yl)propenone], the melting point lay within 211.8 to 214.1 °C. It took 16.9 ± 1.58 µM to reach half-maximal inhibition in data set [1] (IC50). For the same compound, the midpoint of inhibition in data set [2], the IC50, lay at 4.39 ± 0.71 µM. The compound further gave an IC50 in data set [3] of over 30 µM. Also, in data set [4], the IC50 was over 30 µM.

The record behind these values is paper PMC10889159, “Synthesis and Antitumor Activity Evaluation of Novel Echinatin Derivatives with a 1,3,4-Oxadiazole Moiety” (International Journal of Molecular Sciences, 2024).
